In paper PMC8330742, “New benzothieno[2,3-c]pyridines as non-steroidal CYP17 inhibitors: design, synthesis, anticancer screening, apoptosis induction, and in silico ADME profile studies” (Journal of Enzyme Inhibition and Medicinal Chemistry, 2021):

Legend:
[1] = tested on: A549/ATCC; experiment: NCI-60 SRB screen; type: cell-based, human; details: Homo sapiens, single dose 10^−5 M, Non-small cell lung carcinoma, read-out: Growth inhibition (%)
[2] = tested on: HCT-116; experiment: NCI-60 SRB screen; type: cell-based, human; details: Homo sapiens; single dose 10^−5 M; HCT-116, Colon cancer; read-out: Growth inhibition (%)
[3] = tested on: MOLT-4; experiment: NCI-60 SRB screen; type: cell-based; details: Homo sapiens; single dose 10^−5 M; MOLT-4, Leukaemia; read-out: Growth inhibition (%)
[4] = tested on: UO-31; experiment: NCI-60 SRB screen; type: cell-based, human; details: Homo sapiens; single dose 10^−5 M; UO-31, Renal cancer; read-out: Growth inhibition (%)
[5] = tested on: MDA-MB-435; experiment: NCI-60 SRB screen; type: cell-based; details: Homo sapiens, MDA-MB-435, read-out: Growth inhibition (%)
[6] = tested on: NCI/ADR-RES; experiment: NCI-60 SRB screen; type: cell-based, human; details: Homo sapiens, single dose 10^−5 M, Ovarian cancer, read-out: Growth inhibition (%)
[7] = tested on: SK-MEL-28; experiment: NCI-60 SRB screen; type: cell-based; details: Homo sapiens; single dose 10^−5 M; SK-MEL-28, Melanoma; read-out: Growth inhibition (%)
[8] = tested on: HOP-92; experiment: NCI-60 SRB screen; type: cell-based, human; details: Homo sapiens; single dose 10^−5 M; HOP-92, Non-small cell lung carcinoma; read-out: Growth inhibition (%)
[9] = tested on: HT-29; experiment: NCI-60 SRB screen; type: cell-based; details: Homo sapiens; single dose 10^−5 M; HT-29, Colon cancer; read-out: Growth inhibition (%)
[10] = tested on: KM12; experiment: NCI-60 SRB screen; type: cell-based, human; details: Homo sapiens; single dose 10^−5 M; KM12, Colon cancer; read-out: Growth inhibition (%)
[11] = tested on: RXF 393; experiment: NCI-60 SRB screen; type: cell-based, human; details: Homo sapiens; single dose 10^−5 M; RXF 393, Renal cancer; read-out: Growth inhibition (%)
[12] = tested on: NCI-H226; experiment: NCI-60 SRB screen; type: cell-based, human; details: Homo sapiens; single dose 10^−5 M; NCI-H226, Non-small cell lung carcinoma; read-out: Growth inhibition (%)
[13] = tested on: IGROV1; experiment: NCI-60 SRB screen; type: cell-based, human; details: Homo sapiens, IGROV-1; single dose 10^−5 M; IGROV1, Ovarian cancer; read-out: Growth inhibition (%)
[14] = tested on: COLO 205; experiment: NCI-60 SRB screen; type: cell-based, human; details: Homo sapiens; single dose 10^−5 M; COLO 205, Colon cancer; read-out: Growth inhibition (%)
[15] = tested on: SF-268; experiment: NCI-60 SRB screen; type: cell-based, human; details: Homo sapiens; single dose 10^−5 M; SF-268, CNS cancer; read-out: Growth inhibition (%)
[16] = tested on: SK-OV-3; experiment: NCI-60 SRB screen; type: cell-based, human; details: Homo sapiens; single dose 10^−5 M; SK-OV-3, Ovarian cancer; read-out: Growth inhibition (%)
[17] = tested on: ACHN; experiment: NCI-60 SRB screen; type: cell-based; details: Homo sapiens, single dose 10^−5 M, Renal cancer, read-out: Growth inhibition (%)
[18] = tested on: NCI-H23; experiment: NCI-60 SRB screen; type: cell-based, human; details: Homo sapiens; single dose 10^−5 M; NCI-H23, Non-small cell lung carcinoma; read-out: Growth inhibition (%)
[19] = tested on: OVCAR-8; experiment: NCI-60 SRB screen; type: cell-based, human; details: Homo sapiens; single dose 10^−5 M; OVCAR-8, Ovarian cancer; read-out: Growth inhibition (%)
[20] = tested on: SR; experiment: NCI-60 SRB screen; type: cell-based; details: Homo sapiens, single dose 10^−5 M, Leukaemia, read-out: Growth inhibition (%)
[21] = tested on: EKVX; experiment: NCI-60 SRB screen; type: cell-based, human; details: Homo sapiens, single dose 10^−5 M, Non-small cell lung carcinoma, read-out: Growth inhibition (%)
[22] = tested on: HOP-62; experiment: NCI-60 SRB screen; type: cell-based, human; details: Homo sapiens; single dose 10^−5 M; HOP-62, Non-small cell lung carcinoma; read-out: Growth inhibition (%)
[23] = tested on: NCI-H522; experiment: NCI-60 SRB screen; type: cell-based, human; details: Homo sapiens; single dose 10^−5 M; NCI-H522, Non-small cell lung carcinoma; read-out: Growth inhibition (%)
[24] = tested on: HCC-2998; experiment: NCI-60 SRB screen; type: cell-based, human; details: Homo sapiens; single dose 10^−5 M; HCC-2998, Colon cancer; read-out: Growth inhibition (%)
[25] = tested on: MALME-3M; experiment: NCI-60 SRB screen; type: cell-based, human; details: Homo sapiens, single dose 10^−5 M, Melanoma, read-out: Growth inhibition (%)
[26] = tested on: CCRF-CEM; experiment: NCI-60 SRB screen; type: cell-based; details: Homo sapiens, single dose 10^−5 M, Leukaemia, read-out: Growth inhibition (%)
[27] = tested on: SK-MEL-5; experiment: NCI-60 SRB screen; type: cell-based, human; details: Homo sapiens; single dose 10^−5 M; SK-MEL-5, Melanoma; read-out: Growth inhibition (%)
[28] = tested on: OVCAR-4; experiment: NCI-60 SRB screen; type: cell-based, human; details: Homo sapiens; single dose 10^−5 M; OVCAR-4, Ovarian cancer; read-out: Growth inhibition (%)
[29] = tested on: SW-620; experiment: NCI-60 SRB screen; type: cell-based; details: Homo sapiens; single dose 10^−5 M; SW-620, Colon cancer; read-out: Growth inhibition (%)
[30] = tested on: panel of 60 cancer cell lines; experiment: NCI-60 SRB screen, mean or range over the panel; type: cell-based, human; details: Homo sapiens; mean over the cell lines; single dose 10^−5 M; read-out: Mean growth inhibition (%)
[31] = tested on: SF-295; experiment: NCI-60 SRB screen; type: cell-based, human; details: Homo sapiens; single dose 10^−5 M; SF-295, CNS cancer; read-out: Growth inhibition (%)
[32] = tested on: NCI-H322M; experiment: NCI-60 SRB screen; type: cell-based, human; details: Homo sapiens, single dose 10^−5 M, Non-small cell lung carcinoma, read-out: Growth inhibition (%)
[33] = tested on: LOX IMVI; experiment: NCI-60 SRB screen; type: cell-based, human; details: Homo sapiens, single dose 10^−5 M, Melanoma, read-out: Growth inhibition (%)
[34] = tested on: M14; experiment: NCI-60 SRB screen; type: cell-based, human; details: Homo sapiens; single dose 10^−5 M; M14, Melanoma; read-out: Growth inhibition (%)
[35] = tested on: SN12C; experiment: NCI-60 SRB screen; type: cell-based, human; details: Homo sapiens, SN12C; single dose 10^−5 M; SN 12 C, Renal cancer; read-out: Growth inhibition (%)
[36] = tested on: SK-MEL-2; experiment: NCI-60 SRB screen; type: cell-based, human; details: Homo sapiens; single dose 10^−5 M; SK-MEL-2, Melanoma; read-out: Growth inhibition (%)
[37] = tested on: UACC-62; experiment: NCI-60 SRB screen; type: cell-based, human; details: Homo sapiens; single dose 10^−5 M; UACC-62, Melanoma; read-out: Growth inhibition (%)
[38] = tested on: OVCAR-3; experiment: NCI-60 SRB screen; type: cell-based, human; details: Homo sapiens; single dose 10^−5 M; OVCAR-3, Ovarian cancer; read-out: Growth inhibition (%)
[39] = tested on: HL-60(TB); experiment: NCI-60 SRB screen; type: cell-based, human; details: Homo sapiens; single dose 10^−5 M; HL-60(TB), Leukaemia; read-out: Growth inhibition (%)
[40] = tested on: HCT-15; experiment: NCI-60 SRB screen; type: cell-based, human; details: Homo sapiens; single dose 10^−5 M; HCT-15, Colon cancer; read-out: Growth inhibition (%)
[41] = tested on: TK-10; experiment: NCI-60 SRB screen; type: cell-based, human; details: Homo sapiens; single dose 10^−5 M; TK-10, Renal cancer; read-out: Growth inhibition (%)
[42] = tested on: K-562; experiment: NCI-60 SRB screen; type: cell-based, human; details: Homo sapiens, K562; single dose 10^−5 M; K-562, Leukaemia; read-out: Growth inhibition (%)
[43] = tested on: CAKI-1; experiment: NCI-60 SRB screen; type: cell-based, human; details: Homo sapiens; single dose 10^−5 M; CAKI-1, Renal cancer; read-out: Growth inhibition (%)
[44] = tested on: NCI-H460; experiment: NCI-60 SRB screen; type: cell-based, human; details: Homo sapiens; single dose 10^−5 M; NCI-H460, Non-small cell lung carcinoma; read-out: Growth inhibition (%)

CCN1CCN(C2=C(Cl)c3c(sc4c(F)cccc34)C(c3cccc([N+](=O)[O-])c3)N2)CC1 (stereo not shown) [Compound 8a, 4-Chloro-3–(4-ethylpiperzin-1-yl)-8-fluoro-1-(3-nitrophenyl)-1,2-dihydro [1]benzothieno[2,3-c]pyridine]
inhibition at 10 µM [1]: 1.8%
inhibition at 10 µM [2]: 15%
inhibition at 10 µM [3]: 5.94%
inhibition at 10 µM [4]: 35.8%
inhibition at 10 µM [5]: -6.27%
inhibition at 10 µM [6]: -1.63%
inhibition at 10 µM [7]: -10.8%
inhibition at 10 µM [8]: 10.7%
inhibition at 10 µM [9]: 2.3%
inhibition at 10 µM [10]: -1.16%
inhibition at 10 µM [11]: -2.44%
inhibition at 10 µM [12]: 17%
inhibition at 10 µM [13]: 23.8%
inhibition at 10 µM [14]: -11.9%
inhibition at 10 µM [15]: 7.38%
inhibition at 10 µM [16]: 1.74%
inhibition at 10 µM [17]: 9.21%
inhibition at 10 µM [18]: 7.1%
inhibition at 10 µM [19]: 2.09%
inhibition at 10 µM [20]: 23.5%
inhibition at 10 µM [21]: 4.5%
inhibition at 10 µM [22]: 3.76%
inhibition at 10 µM [23]: 14.3%
inhibition at 10 µM [24]: -2.53%
inhibition at 10 µM [25]: 1.57%
inhibition at 10 µM [26]: 1.89%
inhibition at 10 µM [27]: -14.1%
inhibition at 10 µM [28]: 3.25%
inhibition at 10 µM [29]: 4.03%
inhibition at 10 µM [30]: -0.2%
inhibition at 10 µM [31]: 0.4%
inhibition at 10 µM [32]: -1.6%
inhibition at 10 µM [33]: 6.7%
inhibition at 10 µM [34]: 6.73%
inhibition at 10 µM [35]: 2.25%
inhibition at 10 µM [36]: 3.85%
inhibition at 10 µM [37]: 11.6%
inhibition at 10 µM [38]: 1.03%
inhibition at 10 µM [39]: -9.32%
inhibition at 10 µM [40]: 2.5%
inhibition at 10 µM [41]: -41.7%
inhibition at 10 µM [42]: 13.2%
inhibition at 10 µM [43]: 21.9%
inhibition at 10 µM [44]: 0.6%

O=[N+]([O-])c1cccc(C2NC(N3CCOCC3)=C(Cl)c3c2sc2c(F)cccc32)c1 (stereo not shown) [Compound 8b, 4-Chloro-3-(4-morpholino)-8-fluoro-1-(3-nitrophenyl)-1,2-dihydro [1]benzothieno[2,3-c]pyridine]
inhibition at 10 µM [1]: -0.74%
inhibition at 10 µM [2]: 25.3%
inhibition at 10 µM [3]: 13.6%
inhibition at 10 µM [4]: 38.6%
inhibition at 10 µM [5]: -2.51%
inhibition at 10 µM [6]: 1.45%
inhibition at 10 µM [7]: -7.54%
inhibition at 10 µM [8]: 22.2%
inhibition at 10 µM [9]: 0.78%
inhibition at 10 µM [10]: 6.99%
inhibition at 10 µM [11]: 11.9%
inhibition at 10 µM [12]: 20.9%
inhibition at 10 µM [13]: 16.2%
inhibition at 10 µM [14]: -12.9%
inhibition at 10 µM [15]: 7.66%
inhibition at 10 µM [16]: -1.6%
inhibition at 10 µM [17]: 9.98%
inhibition at 10 µM [18]: 5.35%
inhibition at 10 µM [19]: 1.71%
inhibition at 10 µM [20]: 20.4%
inhibition at 10 µM [21]: 14.3%
inhibition at 10 µM [22]: 16.1%
inhibition at 10 µM [23]: 17.3%
inhibition at 10 µM [24]: -13.5%
inhibition at 10 µM [25]: -3.09%
inhibition at 10 µM [26]: 5%
inhibition at 10 µM [27]: -8.74%
inhibition at 10 µM [28]: 13.5%
inhibition at 10 µM [29]: 7.44%
inhibition at 10 µM [30]: 6.1%
inhibition at 10 µM [31]: 4.37%
inhibition at 10 µM [32]: 0.04%
inhibition at 10 µM [33]: 8.33%
inhibition at 10 µM [34]: 7.49%
inhibition at 10 µM [35]: 3.71%
inhibition at 10 µM [36]: 8.89%
inhibition at 10 µM [37]: 17.5%
inhibition at 10 µM [38]: 2.72%
inhibition at 10 µM [39]: -10.1%
inhibition at 10 µM [40]: 4.11%
inhibition at 10 µM [41]: -39.7%
inhibition at 10 µM [42]: 18.6%
inhibition at 10 µM [43]: 32.5%
inhibition at 10 µM [44]: 6.4%
